Laboratory results: US20260364080A1, “PYRAZOLO-PYRIMIDINONE COMPOUNDS FOR USE IN METHODS OF INHIBITING WEE1 A KINASE” (Acrivon Therapeutics, Inc., priority 2023, published 2026)
Read-outs that look alike come from different tables or passages of the source.

What was measured:
[1] = biological target: T1, Wee1A kinase (CDK1 Tyr15 phosphorylation in ACHN renal cell carcinoma cells) (Homo sapiens, UniProt P30291); test: High-content imaging of pCdk1 Y15, Wee1A kinase target engagement in ACHN cells; assay type: cell-based
T1 construct: pCDK1 Tyr15 immunofluorescence read-out
T1 sequence (P30291 whole entry): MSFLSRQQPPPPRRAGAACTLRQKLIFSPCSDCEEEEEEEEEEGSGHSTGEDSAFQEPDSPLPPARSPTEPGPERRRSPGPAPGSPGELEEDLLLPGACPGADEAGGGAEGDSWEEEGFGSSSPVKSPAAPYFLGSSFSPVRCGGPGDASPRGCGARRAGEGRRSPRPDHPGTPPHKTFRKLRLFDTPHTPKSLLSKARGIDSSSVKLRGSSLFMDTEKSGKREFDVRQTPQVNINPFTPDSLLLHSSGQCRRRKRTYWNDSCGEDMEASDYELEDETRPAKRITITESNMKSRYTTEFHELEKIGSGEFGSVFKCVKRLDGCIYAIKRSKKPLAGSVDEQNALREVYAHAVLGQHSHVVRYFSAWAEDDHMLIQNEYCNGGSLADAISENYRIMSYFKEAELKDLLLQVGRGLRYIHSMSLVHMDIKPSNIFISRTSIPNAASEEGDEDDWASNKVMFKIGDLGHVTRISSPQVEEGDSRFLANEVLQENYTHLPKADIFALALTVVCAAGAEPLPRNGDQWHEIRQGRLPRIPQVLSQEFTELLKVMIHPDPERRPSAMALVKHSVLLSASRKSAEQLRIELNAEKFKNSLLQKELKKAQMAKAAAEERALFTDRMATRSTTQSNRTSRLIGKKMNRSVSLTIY
Summary of the method: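 ACHN cells exposed to compound for 4 h over 7–5,000 nM or 0.3–200 nM, then fixed and immunostained for pCDK1 Y15 with DAPI nuclear counterstain. The percentage of pCdk1 Y15 nucleus-positive cells relative to DMSO control was imaged per well; EC50 from dose-response curves.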

[2] = biological target: T2, Myt1 kinase (CDK1 Thr14 phosphorylation in DAOY medulloblastoma cells) (Homo sapiens, UniProt Q99640); test: AlphaLISA assay, Myt1 kinase target engagement (phospho-CDK1 Thr14) in DAOY cells; assay type: cell-based
T2 construct: pCDK1 Thr14 AlphaLISA read-out
T2 sequence (Q99640 1-499): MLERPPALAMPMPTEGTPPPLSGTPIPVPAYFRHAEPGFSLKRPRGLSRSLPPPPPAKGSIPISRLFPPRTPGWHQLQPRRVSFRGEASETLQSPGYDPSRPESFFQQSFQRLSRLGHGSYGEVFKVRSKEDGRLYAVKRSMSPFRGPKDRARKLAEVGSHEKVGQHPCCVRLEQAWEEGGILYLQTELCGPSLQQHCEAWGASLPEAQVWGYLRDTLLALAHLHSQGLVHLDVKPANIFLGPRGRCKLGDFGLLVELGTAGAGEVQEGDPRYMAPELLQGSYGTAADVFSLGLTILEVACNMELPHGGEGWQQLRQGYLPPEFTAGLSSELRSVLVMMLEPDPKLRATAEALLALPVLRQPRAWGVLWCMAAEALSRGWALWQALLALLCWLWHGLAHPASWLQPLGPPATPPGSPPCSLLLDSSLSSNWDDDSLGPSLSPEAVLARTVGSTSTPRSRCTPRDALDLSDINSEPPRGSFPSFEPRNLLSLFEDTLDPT
Protocol: Each of an ACHN renal cell carcinoma cell line (ATCC) and a DAOY medulloblastoma cell line, and an A427 lung cancer line were cultured in Minimum Essential Medium Eagle supplemented with 10% fetal calf serum (Sigma), 1% Penicillin-Streptomycin and 10 mM HEPES buffer (HyClone). Cell cultures were kept in a humidified incubator at 37 °C and 5% CO2. Cells were routinely tested for Mycoplasma contamination.
For target engagement assessment of Myt1 kinase inhibition, quantification of Cdk1 phosphorylated on threonine 14 was detected using the AlphaLISA® SureFire® Ultra™ Human Phospho-CDK1 (Thr14) assay (Perkin Elmer). DAOY or ACHN cells were seeded into tissue culture treated 96-well plates (VWR) to a density of 10,000 or 20,000 cells per well respectively. 24 h post seeding cells were treated for 4 h with compounds at concentrations ranging from 7 to 5000 nM. Cells were washed with PBS and lysed in 50 μl AlphaLISA lysis buffer before freezing at −80 C. Ten ul of the lysate was transferred to 384 well plates and incubated with AlphaLISA donor and acceptor beads according to the manufacturer's instructions. Dose response curves and EC50 values were calculated and visualized using GraphPad Prism version 9. Target engagement for Myt1 kinase can also be measured using the same AlphaLISA assay in OVCAR3 cells, an ovarian cancer cell line. NIH:OVCAR-3 (OVCAR3) cells are cultured in RPMI-1640 medium supplemented with 0.01 mg/ml insulin, 20% FBS, 1% Penicillin-Streptomycin and 10 mM HEPES buffer. 14,000 cells per well are seeded into 96 well tissue culture plates in full medium. Twenty-four hours post seeding, cells are treated with compound for 4 hours at concentrations ranging from 0.017 nM to 1000 nM.

ACHN cells = test: Cell Titer Glo viability assay, ACHN cells; assay type: cell-based; details: Homo sapiens, 144 h, absolute EC50
Summary of the method: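 Cells grown in MEM with 10% FCS were seeded at 500 (A427), 400 (ACHN) or 250 (DAOY) per well and treated the next day with compound at 17 to 10 000 nM. Viability relative to untreated control was read at 144 h by CellTiter-Glo 2.0.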

[3] = biological target: T3, Myt1 kinase (recombinant PMYT-1) (Homo sapiens, UniProt Q99640); test: Myt1 kinase binding assay (LanthaScreen Eu Kinase Binding Assay)
T3 construct: full length PMYT-1 was expressed by baculovirus in insect cells; purchased Invitrogen A30984; host or cells: insect cells (baculovirus)
T3 sequence (Q99640 1-499): T2 sequence (Q99640 1-499)
Summary of the method: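 The binding affinity of compounds for Myt1 kinase was measured with a LanthaScreen Europium (Eu) Kinase Binding Assay, a time-resolved FRET format in which test compounds compete against a labeled kinase tracer, and the results were expressed as IC50 values describing compound binding to Myt1.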

[4] = biological target: T4, recombinant human Wee1A kinase (Homo sapiens, UniProt P30291); test: Wee1A kinase binding assay (LanthaScreen Eu time-resolved FRET)
T4 construct: full length Wee1 kinase was expressed by baculovirus in insect cells; purchased Invitrogen PV3817; host or cells: insect cells (baculovirus)
T4 sequence (P30291 whole entry): as the sequence (P30291 whole entry) above
Summary of the method: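 Full-length, baculovirus-expressed GST-tagged Wee1A (5 nM) was mixed with 2 nM Eu-anti-GST antibody, 30 nM kinase tracer 178 and compound (1% DMSO). Buffer was 50 mM HEPES pH 7.5, 10 mM MgCl2, 1 mM EGTA, 0.01% Brij-35, incubated 60 min at room temperature. TR-FRET 665/615 nm emission ratios from duplicates were curve-fitted.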

[5] = 4 h treatment, nuclear positivity for pCdk1 Y15 vs DMSO control, read-out: CDK1 Tyr15 Phosphorylation EC50
[6] = 4 h treatment, read-out: CDK1 Thr14 Phosphorylation EC50
[7] = 3 nM tracer 178, 2.5 nM PMYT-1, 1 nM Eu-labeled antibody, read-out: Myt1 kinase Binding IC50
[8] = 30 nM tracer 178, 5 nM Wee1A kinase, 2 nM Eu-labeled antibody, 60 minutes at room temperature, read-out: Wee1A kinase Binding IC50

EC50 ([1]; read-out: CDK1 Tyr15 Phosphorylation EC50, 4 h treatment, nuclear positivity for pCdk1 Y15 vs DMSO control) [nM]	EC50 ([2]; read-out: CDK1 Thr14 Phosphorylation EC50, 4 h treatment) [nM]	EC50 (ACHN cells) [nM]	IC50 ([3]; Myt1 kinase Binding IC50, 3 nM tracer 178, 2.5 nM PMYT-1, 1 nM Eu-labeled antibody) [nM]	IC50 [4] [nM]	EC50 [1, 5] [nM]	EC50 [2, 6] [nM]	IC50 [3, 7] [nM]	IC50 [4, 8] [nM]	Structure (SMILES)
100 to 500	500 to 1000	100 to 500	< 20	< 10					C=CCn1c(=O)c2cnc(Nc3cnn(C)c3)nc2n1-c1cccc(O[C@H]2C[C@H]3CC[C@@H](C2)N3C)n1 [Compound 190, 6-[(1-methyl-1H-pyrazol-4-yl)amino]-1-(6-{[(trans)-8-methyl-8-azabicyclo[3.2.1]octan-3-yl]oxy}pyridin-2-yl)-2-(prop-2-en-1-yl)-1H,2H,3H-pyrazolo[3,4-d]pyrimidin-3-one]
		≤ 100			< 100	> 1000	20 to 100	< 10	C=CCn1c(=O)c2cnc(Nc3ccc(OCC(F)(F)F)cc3)nc2n1-c1ccnc(OC2CCN(C)CC2)n1 [Compound 253, 2-allyl-1-(2-((1-methylpiperidin-4-yl)oxy)pyrimidin-4-yl)-6-((4-(2,2,2-trifluoroethoxy)phenyl)amino)-1,2-dihydro-3H-pyrazolo[3,4-d]pyrimidin-3-one]
		≤ 100			< 100	200 to 500	20 to 100	< 10	C=CCn1c(=O)c2cnc(Nc3ccc4[nH]ncc4c3)nc2n1-c1cccc(OC2CCN(C)CC2)n1 [Compound 238, 6-((1H-indazol-5-yl)amino)-2-allyl-1-(6-((1-methylpiperidin-4-yl)oxy)pyridin-2-yl)-1,2-dihydro-3H-pyrazolo[3,4-d]pyrimidin-3-one]
		≤ 100			< 100	200 to 500	< 20	< 10	C=CCn1c(=O)c2cnc(Nc3ccc(OCC)cc3)nc2n1-c1cccc(OC2CCN(C)CC2)n1 [Compound 255, 2-allyl-6-((4-ethoxyphenyl)amino)-1-(6-((1-methylpiperidin-4-yl)oxy)pyridin-2-yl)-1,2-dihydro-3H-pyrazolo[3,4-d]pyrimidin-3-one]
		≤ 100			< 100	> 1000	20 to 100	< 10	C=CCn1c(=O)c2cnc(Nc3ccc(C#N)c(C)c3)nc2n1-c1cccc(OC2CCN(C)CC2)n1 [Compound 204, 2-methyl-4-[(1-{6-[(1-methylpiperidin-4-yl)oxy]pyridin-2-yl}-3-oxo-2-(prop-2-en-1-yl)-1H,2H,3H-pyrazolo[3,4-d]pyrimidin-6-yl)amino]benzonitrile]
		100 to 500			< 100	500 to 1000	< 20	< 10	C=CCn1c(=O)c2cnc(Nc3ccc4cccnc4c3)nc2n1-c1cccc(OC2CCNCC2)n1 [Compound 243, 2-allyl-1-[6-(4-piperidyloxy)-2-pyridyl]-6-(7-quinolylamino)-1,2-dihydro-3H-1,2,5,7-tetraazainden-3-one]
		≤ 100			< 100	500 to 1000	20 to 100	< 10	C=CCn1c(=O)c2cnc(Nc3ccc4c(cnn4C)c3)nc2n1-c1cccc(OC2CCN(CC)CC2)n1 [Compound 321, 2-allyl-1-[6-(1-ethyl-4-piperidyloxy)-2-pyridyl]-6-(1-methyl-1H-indazol-5-ylamino)-1,2-dihydro-3H-1,2,5,7-tetraazainden-3-one]
		100 to 500			< 100	200 to 500	< 20	< 10	C=CCn1c(=O)c2cnc(Nc3ccc(Cl)cc3)nc2n1-c1cccc(OC2CCNCC2)n1 [Compound 141, 2-allyl-6-((4-chlorophenyl)amino)-1-(6-(piperidin-4-yloxy)pyridin-2-yl)-1,2-dihydro-3H-pyrazolo[3,4-d]pyrimidin-3-one]
		≤ 100			< 100	> 1000	20 to 100	< 10	C=CCn1c(=O)c2cnc(Nc3ccc4c(cnn4C)c3)nc2n1-c1ccnc(NC2CCN(C)CC2)n1 [Compound 313, 2-allyl-6-(1-methyl-1H-indazol-5-ylamino)-1-[2-(1-methyl-4-piperidylamino)-4-pyrimidinyl]-1,2-dihydro-3H-1,2,5,7-tetraazainden-3-one]
		≤ 100			< 100	500 to 1000	20 to 100	< 10	C=CCn1c(=O)c2cnc(Nc3ccc(OCC)cc3)nc2n1-c1cccc(OC2CCNCC2)n1 [Compound 254, 2-allyl-6-((4-ethoxyphenyl)amino)-1-(6-(piperidin-4-yloxy)pyridin-2-yl)-1,2-dihydro-3H-pyrazolo[3,4-d]pyrimidin-3-one]
		100 to 500			100 to 500	> 1000	< 20	< 10	C=CCn1c(=O)c2cnc(Nc3ccc4c(cnn4C)c3)nc2n1-c1cccc(O[C@H]2CCNC2)n1 [Compound 100, 1-{6-[(S)-3-pyrrolidinyloxy]-2-pyridyl}-2-allyl-6-(1-methyl-1H-indazol-5-ylamino)-1,2-dihydro-3H-1,2,5,7-tetraazainden-3-one]
		100 to 500			100 to 500	200 to 500	20 to 100	< 10	C=CCn1c(=O)c2cnc(Nc3ccc(Cl)cc3)nc2n1-c1cccc(O[C@H]2CCNC2)n1 [Compound 145, 1-{6-[(S)-3-pyrrolidinyloxy]-2-pyridyl}-2-allyl-6-(p-chlorophenylamino)-1,2-dihydro-3H-1,2,5,7-tetraazainden-3-one]
		≤ 100			< 100	200 to 500	< 20	< 10	C=CCn1c(=O)c2cnc(Nc3ccc4c(cnn4C)c3)nc2n1-c1cccc(O[C@H]2CCCNC2)n1 [Compound 104, 1-{6-[(S)-3-piperidyloxy]-2-pyridyl}-2-allyl-6-(1-methyl-1H-indazol-5-ylamino)-1,2-dihydro-3H-1,2,5,7-tetraazainden-3-one]
		≤ 100			< 100	> 1000	100 to 500	< 10	C=CCn1c(=O)c2cnc(Nc3ccc4c(c3)OCO4)nc2n1-c1cccc(NC2CCN(C)CC2)n1 [Compound 196, 2-allyl-6-(2H-1,3-benzodioxol-5-ylamino)-1-[6-(1-methyl-4-piperidylamino)-2-pyridyl]-1,2-dihydro-3H-1,2,5,7-tetraazainden-3-one]
